Like-named read-outs stand apart in the source and are kept apart here.
Columns and labels:
Format in all cases: in vivo
Erysiphe graminis = test: Field test on Erysiphe graminis, winter wheat cv. Kanzler (Example B-6); conditions: for % infested leaf area after 29 days: winter wheat field trial, untreated control 15
Experimental: A field trial was carried out in Germany with winter wheat, cv.Kanzler. The experiment was arranged with 4 replicates in randomized plots of 12.5 m^2. Cyproconazole was used as a EC240, quinoxyfen as a SC500 and the mixture cyproconazole/quinoxyfen as a SC155 formulation. Cyproconazole was applied at 80 g a.i./ha, quinoxyfen at 75 g a.i./ha and the mixture contained the same amounts of the individual active ingredients. The spray volume of all treatments was 400 l/ha. Disease assessment of Erysiphe graminis was estimated 29 days after application when untrated control plants had 15% infected leaf area. Results are expressed as % activity calculated on the basis of % infected leaf area.

[1] = system: Erysiphe graminis f. sp. tritici; test: Efficacy against Erysiphe graminis f.sp. tritici on wheat (Example B-5), foliar spray, synergy by COLBY
Description: A synergistic effect exists whenever the action of an active ingredient combination is greater than the sum of the actions of the individual components.
The action to be expected E for a given active ingredient combination obeys the so-called COLBY formula and can be calculated as follows (COLBY, S. R. “Calculating synergistic and antagonistic responses of herbicide combination”. Weeds, Vol. 15, pages 20-22; 1967):
According to Colby, the expected (additive) action of active ingredients I+II using p+q ppm of active ingredient is [formula]
If the action actually observed (O) is greater than the expected action (E), then the action of the combination is superadditive, i.e. there is a synergistic effect.
Five to ten wheat seeds c.v. “Arina” are sown in plastic pots of 7 cm diameter and grown for 7 to 12 days at 20° C., 50-70% rH. When the primary leaves have fully expanded, the plants are spray treated with aqueous spray liquors containing the single compounds, or mixtures thereof (hereinafter a.i.). All compounds are used as experimental or commercially available formulations, combinations are applied as tank mixtures. The application comprises foliar spraying to near runoff (three pots per treatment). 24 hours after the application or 24 hours before application, the plants are inoculated in a settling tower with fresh spores of Erysiphe graminis f. sp. tritici. The plants are then incubated in a growth chamber at 20° C., 60% rH. Seven days after the inoculation, the percentage of infection on primary leaves is evaluated. The efficacy of the a.i. is determined by comparing the degree of fungal attack on treated plants with that on untreated, similarly inoculated and incubated check plants. Each a.i. is tested at 4 to 5 concentrations. The synergie factor is calculated according to the COLBY method.

Septoria spp. = test: Activity against Septoria, field trial, winter wheat cv. Consort (Example B-8); conditions: for % infested leaf after 84 days: winter wheat field trial, untreated control 97
Experimental: A field trial was carried out in Great Britain with winter wheat, cv. Consort. The experiment was arranged with 4 replicates in randomized plots each of 36 m^2. Application was carried out at 5-10% infected leaf area on the lower leaves. Cyproconazole was used as a EC240, quinoxyfen as a SC500 and the mixture cyproconazole/quinoxyfen as a SC155 formulation. Cyproconazole was applied at 80 g a.i./ha, quinoxyfen at 75 g a.i./ha and the mixture contained the same amounts of the individual active ingredients. The spray volume of all treatments was 200 l/ha. Disease assessment of Septoria spp. was estimated 84 days after application when the untrated control plants had approximated 97% infected leaf area. Results are expressed as % activity calculated on the basis of % infected leaf area.

Uncinula necator = test: Activity against Uncinula necator on grape plants (Example B-7)
Experimental: The deposit is then allowed to dry. One day later, the treated plants are inoculated by dusting freshly harvested conidia over the test plants; then the plants were incubated in a growt chamber for 10-14 days at +22° C. and 70% r.h. The efficacy of the test compounds is determined by comparing the degree of fungal attack with that on untreated, similarly inoculated check plants. I

[2] = curative application, single a.i. 0.1 mg a.i./l
[3] = protective application, single a.i. 0.1 mg a.i./l
[4] = protective application, single a.i. 0.25 mg a.i./l
[5] = Blumeria graminis, foliar, curative application, single a.i. 0.05 mg a.i./l, read-out: % activity observed

CC(C1CC1)C(O)(Cn1cncn1)c1ccc(Cl)cc1 (stereo not shown) [Cyproconazole]
% activity observed (Erysiphe graminis; SL100, 80 g a.i./ha, 29 days after application): 60% | % infested leaf area after 29 days (Erysiphe graminis; SL100, 80 g a.i./ha): 6% | % activity observed ([1]; curative application, single a.i. 0.05 mg a.i./l): 7% | % activity observed [1, 2]: 8% | % activity observed ([1]; curative application, single a.i. 0.25 mg a.i./l): 16% | % activity observed ([1]; curative application, single a.i. 0.5 mg a.i./l): 24% | % activity observed ([1]; protective application, single a.i. 0.05 mg a.i./l): 1% | % activity observed [1, 3]: 2% | % activity observed [1, 4]: 4% | % activity observed ([1]; protective application, single a.i. 0.5 mg a.i./l): 12% | % activity observed (Septoria spp.; EC240, 80 g a.i./ha, 84 days after application): 42% | % infested leaf after 84 days (Septoria spp.; EC240, 80 g a.i./ha): 56%

Cc1cc(C2CC2)nc(Nc2ccccc2)n1 [Cyprodinil]
% activity observed ([1]; curative application, single a.i. 25 mg a.i./l): 25%

CC(Cc1ccc(C(C)(C)C)cc1)CN1CCCCC1 (stereo not shown) [Fenpropidin]
inhibition at 0.05 µg/mL [1, 5]: 0% | inhibition at 0.5 µg/mL ([1]; Blumeria graminis, foliar, protective application, single a.i. 0.5 mg a.i./l, read-out: % activity observed): 2%

CCCC(Cn1cncn1)c1ccc(Cl)cc1Cl (stereo not shown) [Penconazole]
% activity observed (Uncinula necator; single a.i. 0.1 mg a.i./l): 7% | % activity observed (Uncinula necator; single a.i. 1 mg a.i./l): 42%

CCCC1COC(Cn2cncn2)(c2ccc(Cl)cc2Cl)O1 (stereo not shown) [Propiconazole]
% activity observed [1, 2]: 34% | % activity observed [1, 3]: 1% | % activity observed [1, 4]: 12%

Fc1ccc(Oc2ccnc3cc(Cl)cc(Cl)c23)cc1 [Quinoxyfen]
inhibition at 75 g/ha (Erysiphe graminis; Blumeria graminis, 696 h, SC500, 75 g a.i./ha, 29 days after application, read-out: % activity observed): 33% | % infested leaf area after 29 days (Erysiphe graminis; SC500, 75 g a.i./ha): 10% | inhibition at 0.1 µg/mL (Uncinula necator; Erysiphe necator, single a.i. 0.1 mg a.i./l, read-out: % activity observed): 48% | inhibition at 1 µg/mL (Uncinula necator; Erysiphe necator, single a.i. 1 mg a.i./l, read-out: % activity observed): 58% | inhibition at 0.05 µg/mL [1, 5]: 1% | inhibition at 0.1 µg/mL ([1]; Blumeria graminis, foliar, curative application, single a.i. 0.1 mg a.i./l, read-out: % activity observed): 3% | inhibition at 0.25 µg/mL ([1]; Blumeria graminis, foliar, curative application, single a.i. 0.25 mg a.i./l, read-out: % activity observed): 6% | inhibition at 0.5 µg/mL ([1]; Blumeria graminis, foliar, curative application, single a.i. 0.5 mg a.i./l, read-out: % activity observed): 4% | inhibition at 1 µg/mL ([1]; Blumeria graminis, foliar, curative application, single a.i. 1 mg a.i./l, read-out: % activity observed): 7% | inhibition at 0.05 µg/mL ([1]; Blumeria graminis, foliar, protective application, single a.i. 0.05 mg a.i./l, read-out: % activity observed): 0% | inhibition at 0.1 µg/mL ([1]; Blumeria graminis, foliar, protective application, single a.i. 0.1 mg a.i./l, read-out: % activity observed): 1% | inhibition at 0.25 µg/mL ([1]; Blumeria graminis, foliar, protective application, single a.i. 0.25 mg a.i./l, read-out: % activity observed): 3% | inhibition at 75 g/ha (Septoria spp.; 2016 h, SC500, 75 g a.i./ha, 84 days after application, read-out: % activity observed): 12% | % infested leaf after 84 days (Septoria spp.; SC500, 75 g a.i./ha): 85%
